Test results taken from patent US6124278A, “Acylbenzoxazines for enhancing synaptic response” (The Regents of the University of California, priority 1998, dated 2000).
“And” between values parts separate entries of the source, which are not always exact repeats. Equal values may be shown once. Read-outs that look alike come from different tables or passages of the source.

How the values were obtained:
[1] = Plasma clearance half-life and oral bioavailability (AUC oral vs iv) in rat; type: in vivo
Excerpt: (§1) The third data column reports the magnitude of the increase in the amplitude of the EPSP at the lowest concentrations that produced a significant increase. The characteristic of a compound to produce an increase in the EPSP response has been a reliable predictor of the ability to improve memory in the 8-arm radial maze task.
*Plasma clearance following iv administration in rat
^# AUC for oral administration as a percentage of AUC for iv

AMPA receptors [2] = experiment: Field EPSP response in rat hippocampal slices (CA1); type: cell-based, rat (Sprague-Dawley); settings: for EPSP Response (percentage increase in the area of the EPSP response): rat hippocampal slices
Method: The physiological effects of invention compounds can be tested in vitro with slices of rat hippocampus according to the following procedure. Excitatory responses (field EPSPs) are measured in hippocampal slices, which are maintained in a recording chamber continuously perfused with artificial cerebrospinal fluid (ACSF). During a 15-30 minute interval, the perfusion medium is switched to one containing various concentrations of the test compounds. Responses collected immediately before and at the end of drug perfusion were superimposed in order to calculate both the percent increase in EPSP amplitude and percent increase in the width of the response at one-half the peak height (half-width).
To conduct these tests, the hippocampus was removed from anesthetized, 2 month old Sprague-Dawley rats and in vitro slices (400 micrometers thick) were prepared and maintained in an interface chamber at 35° C. using conventional techniques [see, for example, Dunwiddie and Lynch, J. Physiol. 276: 353-367 (1978)]. The chamber was constantly perfused at 0.5 mL/min with ACSF containing (in mM): NaCl 124, KCl 3, KH2 PO4 1.25, MgSO4 2.5, CaCl2 3.4, NaHCO3 26, glucose 10 and L-ascorbate 2. A bipolar nichrome stimulating electrode was positioned in the dendritic layer (stratum radiatum) of the hippocampal subfield CA1 close to the border of subfield CA3.
Current pulses (0.1 msec) through the stimulating electrode activate a population of the Schaffer-commissural (SC) fibers that arise from neurons in the subdivision CA3 and terminate in synapses on the dendrites of CA1 neurons. Activation of these synapses causes them to release the transmitter glutamate. Glutamate binds to the post-synaptic AMPA receptors which then transiently open an associated ion channel and permit a sodium current to enter the postsynaptic cell. This current results in a voltage in the extracellular space (the field excitatory post-synaptic potential or field "EPSP") which is recorded by a high impedance recording electrode positioned in the middle of the stratum radiatum of CA1.
For the experiments summarized Table 1, the intensity of the stimulation current was adjusted to produce half-maximal EPSPs (typically about 1.5-2.0 mV). Paired stimulation pulses were given every 40 sec with an interpulse interval of 200 msec (see below). The field EPSPs of the second response were digitized and analyzed to determine amplitude, half-width, and response area. If the responses were stable for 15-30 minutes (baseline), test compounds were added to the perfusion lines for a period of about 15 minutes. The perfusion was then changed back to regular ACSF.
Paired-pulse stimulation was used since stimulation of the SC fibers, in part, activates interneurons which generate an inhibitory postsynaptic potential (IPSP) in the pyramidal cells of CA1. This feed forward IPSP typically sets in after the EPSP reaches its peak. It accelerates the repolarization and shortens the decay phase of the EPSP, and thus could partially mask the effects of the test compounds. One of the relevant features of the feed-forward IPSP is that it can not be reactivated for several hundred milliseconds following a stimulation pulse. […]
The field EPSP recorded in field CA1 after stimulation of CA3 axons is known to be mediated by AMPA receptors: the receptors are present in the synapses [Kessler et al., Brain Res. 560: 337-341 (1991)] and drugs that selectively block the receptor selectively block the field EPSP [Muller et al., Science, supra]. […]

[3] = Memory enhancement in eight-arm radial maze; type: in vivo; settings: rat, read-out: Maze MED (Minimum Effective Dose to improve performance of rats in the eight-arm radial maze)
Excerpt: as §1
^.dagger-dbl. Minimum Effective Dose to improve performance of rats i
the eightarm radial maze.

[4] = comparison compound, Example 1 of U.S. Pat. No. 5,736,543; rat; cited from earlier work
AMPA receptors [5] = settings: metabolite; cited from earlier work

SMILES: O=C1CCC2Oc3cc4c(cc3CN12)OCO4 (centres unmarked) [Compound 1, 5a,6,7,8-Tetrahydro-1,3-dioxolo[4,5-g]pyrrolo[2,1-b][1,3]benzoxazine-8(10H)-one]
- half-life ([1]; iv administration): 58 min
- bioavailability ([1]; oral vs iv, read-out: Bioavailability (AUC for oral administration as a percentage of AUC for iv)): 100%
- EPSP Response (percentage increase in the area of the EPSP response) (AMPA receptors [2]; 300 μM): 20% and 25%

SMILES: O=C1CCC2Oc3cc4c(cc3CN12)OCCO4 (centres unmarked) [Compound 2, 6a,7,8,9-Tetrahydro-1,4-dioxin[2,3-g]pyrrolo[2,1-b][1,3]benzoxazine-9(11H)-one]
- minimal effective dose [3]: 0.1 mg/kg
- EPSP Response (percentage increase in the area of the EPSP response) (AMPA receptors [2]; 30 μM): 20%

SMILES: O=C1CCCC2Oc3cc4c(cc3CN12)OCCO4 (centres unmarked) [Compound 3, 6a,7,8,9-Tetrahydro-1,4-dioxan[2,3-g]pyrido[2,1-b][1,3]benzoxazine-10(10H,12H)-dione]
- EPSP Response (percentage increase in the area of the EPSP response) (AMPA receptors [2]; 30 μM): 10%

SMILES: O=C1CCC2Oc3cc4c(cc3C(=O)N12)OCO4 (centres unmarked) [Compound 4, 5a,6,7,8-Tetrahydro-1,3-dioxolo[4,5-g]pyrrolo[2,1-b][1,3]benzoxazine-8,10(10H)-dione]
- Activity in the slice model, in words (AMPA receptors [2]; 300 μM): inactive
- EPSP Response (percentage increase in the area of the EPSP response) (AMPA receptors [2]; 300 μM): 0%

SMILES: O=C1c2cc3c(cc2OC2CCCN12)OCO3 (centres unmarked) [Example 1 of U.S. Pat. No. 5,736,543]
- bioavailability [4]: 35%
- half-life [4]: 31 min

SMILES: COc1ccc(C(=O)NCCCC(=O)O)cc1 [anisoyl-GABA]
- Aniracetam-like effects (AMPA receptors [5]): only weak aniracetam-like effects
